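Assay format: 96-well plates, 48-hour exposure. GI50 marks 50% less growth.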 The source made the active and inactive calls. Cut-off read from the data, not from the text of the source: active = GI50 up to about 1.1 µM and inactive = higher.
Experiments:
Experiment in all cases: NCI tumour cell line growth inhibition, 48 h
CAKI-1 = tested on: CAKI-1
HCT-116 = tested on: HCT-116
HCT-15 = tested on: HCT-15
HL-60 = tested on: HL-60
IGROV-1 = tested on: IGROV-1
Malme-3M = tested on: Malme-3M
NCI-H226 = tested on: NCI-H226
NCI-H522 = tested on: NCI-H522
OVCAR-5 = tested on: OVCAR-5
PC-3 = tested on: PC-3
RXF 393 = tested on: RXF 393
SF-268 = tested on: SF-268
SK-MEL-2 = tested on: SK-MEL-2
SK-MEL-5 = tested on: SK-MEL-5
SNB-19 = tested on: SNB-19
SNB-75 = tested on: SNB-75
SR = tested on: SR
UO-31 = tested on: UO-31
SK-OV-3 = tested on: SK-OV-3
TK-10 = tested on: TK-10

| Structure (SMILES) | GI50 (CAKI-1) | GI50 (HCT-116) | GI50 (HCT-15) | GI50 (HL-60) | GI50 (IGROV-1) | GI50 (Malme-3M) | GI50 (NCI-H226) | GI50 (NCI-H522) | GI50 (OVCAR-5) | GI50 (PC-3) | GI50 (RXF 393) | GI50 (SF-268) | GI50 (SK-MEL-2) | GI50 (SK-MEL-5) | GI50 (SNB-19) | GI50 (SNB-75) | GI50 (SR) | GI50 (UO-31) | GI50 (SK-OV-3) | GI50 (TK-10) |
| --- | --- | --- | --- | --- | --- | --- | --- | --- | --- | --- | --- | --- | --- | --- | --- | --- | --- | --- | --- | --- |
| O=C(Nc1ccc2c(c1)oc(=O)c1ccccc12)C(Cl)Cl | > 100 µM (inactive) | 69.3 µM (inactive) | 71.1 µM | 12.2 µM (inactive) | > 100 µM (inactive) | > 100 µM (inactive) | > 100 µM (inactive) | > 100 µM (inactive) | > 100 µM (inactive) | 76.4 µM (inactive) | > 100 µM (inactive) | > 100 µM (inactive) | > 100 µM (inactive) | > 100 µM (inactive) | 27.3 µM (inactive) | > 100 µM (inactive) | 45 µM (inactive) | > 100 µM (inactive) |  |  |
| CCOC1=NC(C(F)(F)F)(C(F)(F)F)N=C(N2CCOCC2)O1 | > 100 µM (inactive) | > 100 µM (inactive) | > 100 µM | 89.5 µM (inactive) | > 100 µM (inactive) |  |  | > 100 µM (inactive) | > 100 µM (inactive) | > 100 µM (inactive) | 80.7 µM (inactive) | > 100 µM (inactive) | > 100 µM (inactive) | > 100 µM (inactive) | > 100 µM (inactive) | > 100 µM (inactive) | > 100 µM (inactive) | > 100 µM (inactive) | > 100 µM (inactive) | > 100 µM (inactive) |
| C=C1CC(C)(c2ccc(Nc3nc4ccccc4c4occc34)cc2)OC1=O (stereo not given) | 15.8 µM (inactive) | 1.34 µM (inactive) | 1.94 µM | 2.07 µM (inactive) |  | 17.2 µM (inactive) | < 0.01 µM (active) |  | 14.1 µM (inactive) | 4.36 µM (inactive) | 2.08 µM (inactive) | 2.93 µM (inactive) |  | 5.09 µM (inactive) | 7.45 µM (inactive) | 1.92 µM (inactive) | 1.63 µM (inactive) |  | 10.8 µM (inactive) | 4.86 µM (inactive) |
| COc1cccc(-c2cc(O)c3cccnc3n2)c1 | 0.0984 µM (active) | 0.0546 µM (active) | 0.0873 µM | 0.0261 µM (active) | 0.432 µM (active) | > 100 µM (inactive) | 0.325 µM (active) | 0.0698 µM (active) |  | 0.158 µM (active) | 0.229 µM (active) | 0.611 µM (active) | > 100 µM (inactive) | 0.0546 µM (active) | 0.213 µM (active) | 0.0857 µM (active) | 0.0614 µM (active) | 12.3 µM (inactive) |  | > 100 µM (inactive) |
| CCOC(=O)C(C)(C)C(O)C(C)C (stereo not given) | > 100 µM (inactive) | > 100 µM (inactive) | > 100 µM | > 100 µM (inactive) | > 100 µM (inactive) | > 100 µM (inactive) |  | > 100 µM (inactive) | > 100 µM (inactive) | > 100 µM (inactive) | > 100 µM (inactive) | > 100 µM (inactive) | > 100 µM (inactive) | > 100 µM (inactive) | > 100 µM (inactive) | > 100 µM (inactive) | > 100 µM (inactive) | > 100 µM (inactive) | > 100 µM (inactive) | > 100 µM (inactive) |
| COC(=O)CCc1cc(OC)c(O)c(C(Cc2ccc(OC)c(OC)c2)C(=O)OC)c1 (stereo not given) |  | > 100 µM (inactive) | > 100 µM | > 100 µM (inactive) | > 100 µM (inactive) | > 100 µM (inactive) | > 100 µM (inactive) | > 100 µM (inactive) | > 100 µM (inactive) | > 100 µM (inactive) | > 100 µM (inactive) | > 100 µM (inactive) | > 100 µM (inactive) | > 100 µM (inactive) | > 100 µM (inactive) | > 100 µM (inactive) | > 100 µM (inactive) | > 100 µM (inactive) | > 100 µM (inactive) | > 100 µM (inactive) |
| CSc1n[n+](C)cc(N)c1N | > 100 µM (inactive) | > 100 µM (inactive) | > 100 µM | 51.9 µM (inactive) | > 100 µM (inactive) | 36.1 µM (inactive) | > 100 µM (inactive) | > 100 µM (inactive) | > 100 µM (inactive) | > 100 µM (inactive) |  |  | > 100 µM (inactive) | > 100 µM (inactive) | 29.9 µM (inactive) | > 100 µM (inactive) | > 100 µM (inactive) | 88.9 µM (inactive) | > 100 µM (inactive) | > 100 µM (inactive) |
| CCC(C)NC1=NCC(C)S1 (stereo not given) | > 100 µM (inactive) | > 100 µM (inactive) | > 100 µM | > 100 µM (inactive) | > 100 µM (inactive) | > 100 µM (inactive) | > 100 µM (inactive) | > 100 µM (inactive) | > 100 µM (inactive) | > 100 µM (inactive) | 28.3 µM (inactive) | > 100 µM (inactive) | > 100 µM (inactive) | > 100 µM (inactive) | > 100 µM (inactive) | > 100 µM (inactive) | > 100 µM (inactive) | > 100 µM (inactive) | > 100 µM (inactive) |  |

— ChEMBL document CHEMBL1201862, “PubChem BioAssay data set” (2004)
